# Biological target: PRMT5/MEP50 (Homo sapiens (Human), UniProt O14744)
# Experiment: PRMT5 Biochemical Assay (PRMT5/MEP50 enzyme assay on peptide substrate, 3H-SAM Flashplate)
# Conditions: PRMT5 biochemical assay; read-out: Biochemical IC50
# From the text: S-adenosylmethionine (SAM), S-adenosylhomocysteine (SAH), bicine, KCl, Tween20, dimethylsulfoxide (DMSO), bovine skin gelatin (BSG), and Tris(2-carboxyethyl)phosphine hydrochloride solution (TCEP) were purchased from Sigma-Aldrich at the highest level of purity possible. ^3H-SAM was purchase from American Radiolabeled Chemicals with a specific activity of 80 Ci/mmol. 384-well streptavidin Flashplates were purchased from PerkinElmer.
# Peptide representative of human histone H4 residues 1-15 was synthesized with a C-terminal linker-affinity tag motif and a C-terminal amide cap by 21st Century Biochemicals. […] The sequence was Ac-[…][K-Biot]-amide (SEQ ID NO.:3).
# Full-length human MEP50 (NM_024102) clone was amplified from a human testis cDNA library incorporating a 5′ sequence encoding a 6-histidine tag (MHHHHHH)(SEQ ID NO.:5) fused directly to Arg 2 of MEP50. The amplified genes were sublconed into pENTR/D/TEV (Life Technologies) and subsequently transferred by Gateway™ attL×attR recombination to pDEST8 baculvirus expression vector (Life Technologies).
# Recombinant baculovirus and Baculovirus-Infected Insect Cells (BIIC) were generated according to Bac-to-Bac kit instructions (Life Technologies) and Wasilko, 2006, respectively. Protein over-expression was accomplished by infecting exponentially growing Spodoptera frugiperda (SF9) cell culture at 1.2×10^6 cell/ml with a 5000 fold dilution of BIIC stock. Infections were carried out at 27° C. for 72 hours, harvested by centrifugation, and stored at −80° C. for purification.
# Flag-PRMT5/6His-MeP50 was eluted with 300 mM Imidazole in the same buffer. […] Reference: Wasilko, D. J. and S. E. Lee: “TIPS: titerless infected-cells preservation and scale-up” Bioprocess J., 5 (2006), pp. 29-32.
# General Procedure for PRMT5/MEP50 Enzyme Assays on Peptide Substrates.
# The assays were all performed in a buffer consisting of 20 mM Bicine (pH=7.6), 1 mM TCEP, 0.005% BSG, and 0.002% Tween20, prepared on the day of use. Compounds in 100% DMSO (1 ul) were spotted into a polypropylene 384-well V-bottom plates (Greiner) using a Platemate Plus outfitted with a 384-channel head (Thermo Scientific). DMSO (1 ul) was added to Columns 11, 12, 23, 24, rows A-H for the maximum signal control and 1 ul of SAH, a known product and inhibitor of PRMT5/MEP50, was added to columns 11, 12, 23, 24, rows I-P for the minimum signal control. A cocktail (40 ul) containing the PRMT5/MEP50 enzyme and the peptide was added by Multidrop Combi (Thermo-Fisher). The compounds were allowed to incubate with PRMT5/MEP50 for 30 min at 25 degrees Celsius, then a cocktail (10 ul) containing ^3H-SAM was added to initiate the reaction (final volume=51 ul).
# Sequence of PRMT5/MEP50 (O14744 other isoform, or with tags, fused parts or gaps): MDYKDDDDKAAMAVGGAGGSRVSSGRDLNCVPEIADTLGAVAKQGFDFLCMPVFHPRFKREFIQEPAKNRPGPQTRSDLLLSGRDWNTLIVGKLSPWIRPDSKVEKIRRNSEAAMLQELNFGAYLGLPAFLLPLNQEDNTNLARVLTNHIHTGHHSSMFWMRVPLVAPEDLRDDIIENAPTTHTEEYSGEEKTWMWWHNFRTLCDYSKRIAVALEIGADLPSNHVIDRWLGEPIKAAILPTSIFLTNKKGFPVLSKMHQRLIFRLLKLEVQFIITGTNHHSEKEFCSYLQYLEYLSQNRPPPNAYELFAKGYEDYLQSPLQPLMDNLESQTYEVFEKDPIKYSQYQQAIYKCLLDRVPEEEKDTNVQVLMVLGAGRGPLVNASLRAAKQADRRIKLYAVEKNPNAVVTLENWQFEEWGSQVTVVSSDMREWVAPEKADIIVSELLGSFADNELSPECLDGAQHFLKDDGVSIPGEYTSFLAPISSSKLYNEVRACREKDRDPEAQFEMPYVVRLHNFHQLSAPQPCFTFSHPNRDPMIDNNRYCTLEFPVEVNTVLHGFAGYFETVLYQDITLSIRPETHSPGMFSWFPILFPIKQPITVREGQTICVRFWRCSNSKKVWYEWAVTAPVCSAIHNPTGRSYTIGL
# Sequence of PRMT5/MEP50 (Q9BQA1 other isoform, or with tags, fused parts or gaps partner): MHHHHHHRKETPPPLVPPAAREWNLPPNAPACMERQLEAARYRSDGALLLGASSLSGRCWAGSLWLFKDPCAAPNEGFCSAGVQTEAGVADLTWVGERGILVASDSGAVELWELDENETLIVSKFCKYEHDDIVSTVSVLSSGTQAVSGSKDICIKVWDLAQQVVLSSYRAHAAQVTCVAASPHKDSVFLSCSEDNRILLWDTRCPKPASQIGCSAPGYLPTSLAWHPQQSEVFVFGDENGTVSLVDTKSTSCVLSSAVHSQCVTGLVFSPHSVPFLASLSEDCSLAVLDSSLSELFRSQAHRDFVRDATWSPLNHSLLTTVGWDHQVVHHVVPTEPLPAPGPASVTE
row,Structure (SMILES),IC50 [nM]
1,O=C(NCC(O)CN1CCc2ccccc2C1)C(O)c1ccccc1 (stereo not shown) [Compound 165],101 to 1000
2,O=C(COC1CCCOC1)NCC(O)CN1CCc2ccccc2C1 (stereo not shown) [Compound 166],1000 to 10000
3,O=C(COCCN1CCOCC1)NCC(O)CN1CCc2ccccc2C1 (stereo not shown) [Compound 167],1000 to 10000
4,Nc1ncnc2c(OCC(=O)NCC(O)CN3CCc4ccccc4C3)cccc12 (stereo not shown) [Compound 168],< 100
5,CN(C)c1cccc(OCC(=O)NCC(O)CN2CCc3ccccc3C2)c1S(N)(=O)=O (stereo not shown) [Compound 169],< 100
6,CC(NC(=O)COc1ccccc1S(N)(=O)=O)C(O)CN1CCc2ccccc2C1 (stereo not shown) [Compound 170],< 100
7,O=C(COC1CCOC1)NCC(O)CN1CCc2ccccc2C1 (stereo not shown) [Compound 171],1000 to 10000
8,O=C(COc1cncc(CN2CCOCC2)c1)NCC(O)CN1CCc2ccccc2C1 (stereo not shown) [Compound 172],101 to 1000
9,CC(O)(C(=O)NCC(O)CN1CCc2ccccc2C1)c1ccccc1 (stereo not shown) [Compound 173],1000 to 10000
10,O=C(Cc1ccc2c(c1)OCO2)NC[C@H](O)CN1CCc2ccccc2C1 [Compound 174],101 to 1000
11,"O=C(CCc1nc2ccccc2[nH]1)NC[C@H](O)CN1CCc2ccccc2C1 [Compound 175, (S)-3-(1H-benzo[d]imidazol-2-yl)-N-(3-(3,4-dihydroisoquinolin-2(1H)-yl)-2-hydroxypropyl)propanamide]",< 100
12,CN1CCN(CCOCC(=O)NCC(O)CN2CCc3ccccc3C2)CC1 (stereo not shown) [Compound 176],1000 to 10000
13,O=C(NC[C@H](O)CN1CCc2ccccc2C1)C1CNc2ccccc21 (stereo partly shown) [Compound 177],101 to 1000
14,O=C(CC1CCc2ccccc21)NC[C@H](O)CN1CCc2ccccc2C1 (stereo partly shown) [Compound 178],101 to 1000
15,O=C(CC1Cc2ccccc2C1)NC[C@H](O)CN1CCc2ccccc2C1 [Compound 179],101 to 1000
16,O=C(NC[C@H](O)CN1CCc2ccccc2C1)C1CCCc2ccccc21 (stereo partly shown) [Compound 180],1000 to 10000

row,Structure (SMILES),IC50 [nM]
1,O=C(COc1cccc2cncnc12)NCC(O)CN1CCc2ccccc2C1 (stereo not shown) [Compound 181],< 100
2,O=C(Cc1c[nH]c2ccccc12)NC[C@H](O)CN1CCc2ccccc2C1 [Compound 182],101 to 1000
3,O=C(NC[C@H](O)CN1CCc2ccccc2C1)C1COc2ccccc2O1 (stereo partly shown) [Compound 183],101 to 1000
4,O=C(NC[C@H](O)CN1CCc2ccccc2C1)[C@@H]1C[C@@H]2CCCC[C@@H]2N1 [Compound 184],1000 to 10000
5,O=C(NC[C@H](O)CN1CCc2ccccc2C1)[C@H]1Cc2ccccc2CN1 [Compound 185],101 to 1000
6,O=C(COc1cccc(-c2ncc[nH]2)c1)NC[C@@H](O)CN1CCc2ccccc2C1 [Compound 186],1000 to 10000
7,Cn1ccnc1-c1cccc(OCC(=O)NC[C@@H](O)CN2CCc3ccccc3C2)c1 [Compound 187],1000 to 10000
8,O=C(COc1cccc(C(=O)NCCN2CCOCC2)c1)NC[C@@H](O)CN1CCc2ccccc2C1 [Compound 188],1000 to 10000
9,O=C(COc1cccc(C(=O)NCCc2c[nH]cn2)c1)NC[C@@H](O)CN1CCc2ccccc2C1 [Compound 189],101 to 1000
10,CN1CCN(c2cccc(OCC(=O)NC[C@@H](O)CN3CCc4ccccc4C3)c2)CC1 [Compound 190],< 100
11,CN(C)CCN(C)S(=O)(=O)c1ccccc1OCC(=O)NC[C@@H](O)CN1CCc2ccccc2C1 [Compound 191],< 100
12,"O=C(CCc1nc2ccccc2[nH]1)NC[C@@H](O)CN1CCc2ccccc2C1 [Compound 192, (R)-3-(1H-benzo[d]imidazol-2-yl)-N-(3-(3,4-dihydroisoquinolin-2(1H)-yl)-2-hydroxypropyl)propanamide]",101 to 1000
13,O=C(CCc1nc2ccccc2s1)NC[C@@H](O)CN1CCc2ccccc2C1 [Compound 193],1000 to 10000
14,O=C(COc1nc2ccccc2[nH]1)NC[C@@H](O)CN1CCc2ccccc2C1 [Compound 212],1000 to 10000
15,O=C(COc1cccc(C(=O)NCCn2ccnc2)c1)NC[C@@H](O)CN1CCc2ccccc2C1 [Compound 230],1000 to 10000
